# In paper PMC4890124, “Antimicrobial activity, improved cell selectivity and mode of action of short PMAP-36-derived peptides against bacteria and Candida” (Scientific Reports, 2016):
# Tests used:
# Test in all cases: microbe, parasite or virus in culture
# [1] = system: Candida albicans CGMCC 2.2086; assay type: cell-based; details: Candida albicans, CGMCC2, three independent experiments; for MIC: CLSI 2-fold microdilution, RPMI-1640, 28 °C for 48 h, visual; for MFC: lowest concentration killing at least 99.9% of initial inoculum, YPD agar, 48 h at 28 °C
# Excerpt: (§1) The antifungal activities were monitored in RPMI-1640 broth medium by a 2-fold microdilution assay according to the Clinical and Laboratory Standards Institute (CLSI) methods. The Candida albicans CGMCC 2.2086, Candida tropicalis CGMCC 2.1975, and Candida krusei CGMCC 2.1857 fungal strains were purchased from the China General Microbiological Culture Collection Center (CGMCC, Beijing, China). Clinically isolated Candida albicans CA2761 was provided by the 4th Affiliated Hospital of Harbin Medical University. Briefly, fungal strains were cultured on YPD agar plates (1% peptone, 0.5% yeast extract, 1% glucose and 2% agar) at 28 °C to prepare Candida suspensions with a turbidity of a 0.5 McFarland standard. A total of 50 μl inoculum cell suspension diluted in RPMI-1640 broth medium was added to an equal volume of peptide solution to achieve a final peptide concentrations ranging from 0.25 μM to 128 μM in a 96-well plate. Pure broth alone or with inoculum suspensions was used as the negative control or the positive control, respectively. The plate was incubated at 28 °C for 48 h. MIC was considered the lowest concentration at which no fungal growth was visually observed under experimental conditions. […] After 48 h incubation at 28 °C, MFC was defined as the lowest concentration of peptides that killed at least 99.9% of the initial inoculums. Experiments were performed in triplicate with three biological replicates.
# [2] = system: Candida krusei CGMCC 2.1857; assay type: cell-based; details: Pichia kudriavzevii, CGMCC2, three independent experiments; for MIC: CLSI 2-fold microdilution, RPMI-1640, 28 °C for 48 h, visual; for MFC: lowest concentration killing at least 99.9% of initial inoculum, YPD agar, 48 h at 28 °C
# Excerpt: as §1
# [3] = system: Candida tropicalis CGMCC 2.1975; assay type: cell-based; details: Candida tropicalis, CGMCC2, three independent experiments; for MIC: CLSI 2-fold microdilution, RPMI-1640, 28 °C for 48 h, visual; for MFC: lowest concentration killing at least 99.9% of initial inoculum, YPD agar, 48 h at 28 °C
# Excerpt: as §1
# [4] = system: C. albicans CA276 (clinical isolate); assay type: cell-based, Candida albicans; details: Candida albicans, three independent experiments; for MIC: CLSI 2-fold microdilution, RPMI-1640, 28 °C for 48 h, visual; for MFC: lowest concentration killing at least 99.9% of initial inoculum, YPD agar, 48 h at 28 °C
# Excerpt: as §1
MIC [1] [µM],MIC [2] [µM],MIC [3] [µM],MIC [4] [µM],Structure (SMILES),MFC [1] [µM],MFC [2] [µM],MFC [3] [µM],MFC [4] [µM]
0.25,1,0.25,0.5,"C[C@@H]1[C@H](O)[C@@H](C)/C=C/C=C/C=C/C=C/C=C/C=C/C=C/[C@H](O[C@@H]2O[C@H](C)[C@@H](O)[C@H](N)[C@@H]2O)C[C@@H]2O[C@](O)(C[C@@H](O)C[C@@H](O)[C@H](O)CC[C@@H](O)C[C@@H](O)CC(=O)O[C@H]1C)C[C@H](O)[C@H]2C(=O)O [Amphotericin B, reference compound]",0.25,1,1,1
2,64,0.25,2,"OC(Cn1cncn1)(Cn1cncn1)c1ccc(F)cc1F [Fluconazole, reference compound]",2,64,1,2
